# Measured values: patent publication US20260137820A1, “TRIFUNCTIONAL COMPOUND AND USE THEREOF” (PEKING UNIVERSITY, priority 2022, published 2026)
# *1 amine or outer side, *2 acyl side, *3 side chain or, on linkers, in order; H or OH if unused. Where a SMILES comes first, the peptide text is derived from it. Side-chain parts run from the residue outwards. [ ]: non-standard residue; d: D form. The star is where a group is joined. DOTA = O=C(O)CN1CCN(CC(=O)O)CCN(CC(=O)*)CCN(CC(=O)O)CC1; X1 = O=C([C@@H](Cc1ccc(OS(=O)(=O)F)cc1)N[*:1])[*:2]; 2Nal = N[C@@H](Cc1ccc2ccccc2c1)C(=O)O; dNMeOrn = CN[C@H](CCCN)C(=O)O; 4Amb = NCc1ccc(C(=O)O)cc1
# Assays:
# Daudi tumor = test: PET/CT imaging in tumor mouse model with high CXCR4 expression; format: in vivo; conditions: 7.4-18.5 MBq i.v., 2 hours, p<0.05
# Procedure: (§1) All PET/CT scans were carried out on Mediso nanoScan® PET 122S small animal PET/CT.
# (§2) A certain number (n=4) of Daudi tumor mice (for the construction method, see the method in PET Imaging of CXCR4 Receptors in Cancer by a New Optimized Ligand, published by Oliver Demmer et al.) were taken and intravenously injected at specified time points with 7.4-18.5 MBq of ^68Ga-pentixafor (as a control, the labeled precursor is readily commercially available, and the structure is specifically disclosed) and ^68Ga-CXCR4-CB-03 molecules (Note: the injection of the control and investigation molecules was separated apart by at least 12 hours until the previous ^68Ga molecule essentially completely decayed and was essentially completely metabolized). Imaging was carried at the time point of 2 hours, and the SUVmax value in tumor was obtained by a software.
# AR42J tumor = test: PET/CT imaging in tumor mouse model with high SSTR2 expression; format: in vivo; conditions: 7.4-18.5 MBq i.v., 2 hours, p<0.05
# Procedure: as §1
# as §2, with “AR42J” for “Daudi”, “Combination radionuclide therapy using ^177Lu-and ^90Y-labeled somatostatin analogs,” for “PET Imaging of CXCR4 Receptors in Cancer by a New Optimized Ligand,”, “Marion de Jong” for “Oliver Demmer”, “^68Ga-DOTATATE” for “^68Ga-pentixafor”, “^68Ga-SSTR2-CB-02” for “^68Ga-CXCR4-CB-03”
structure (smiles),measurement,setting,value
"CN1C(=O)[C@@H](Cc2ccc(OS(=O)(=O)F)cc2)NC(=O)CNC(=O)[C@H](Cc2ccc3ccccc3c2)NC(=O)[C@H](CCCNC(=N)N)NC(=O)[C@H]1CCCNC(=O)c1ccc(CNC(=O)CN2CCN(CC(=O)O)CCN(CC(=O)O)CCN(CC(=O)O)CC2)cc1 [^68Ga-CXCR4-CB-03, metal not drawn] (cyclo([2Nal]G[X1][dNMeOrn]([4Amb-DOTA])R))",drug tumor uptake (SUVmax) compared with ^68Ga-pentixafor,Daudi tumor,significantly higher
"C[C@@H](O)[C@H](NC(=O)[C@@H]1CSSC[C@H](NC(=O)[C@@H](Cc2ccccc2)NC(=O)CN2CCN(CC(=O)O)CCN(CC(=O)O)CCN(CC(=O)O)CC2)C(=O)N[C@@H](Cc2ccc(OS(=O)(=O)F)cc2)C(=O)N[C@H](Cc2c[nH]c3ccccc23)C(=O)N[C@@H](CCCCN)C(=O)N[C@@H]([C@@H](C)O)C(=O)N1)C(=O)O [^68Ga-SSTR2-CB-02, metal not drawn]",drug tumor uptake (SUVmax) compared with ^68Ga-DOTATATE,AR42J tumor,significantly higher
